Experimental data published in patent US20210317140A1, “Heterocyclic Compounds and Methods of Use” (MEDIVATION TECHNOLOGIES, INC, priority 2013, published 2021).

Columns and labels:
[1] = target: T1, PI3Kδ (Homo sapiens, UniProt O00329); assay: PI3Kδ kinase assay (HTRF, PIP3 detection); type: biochemical; conditions: for IC50: 10 dose IC50, 10 μM ATP; for PI3Kδ @ 0.1 μM (% Inh): 0.1 μM compound; for PI3Kδ @ 0.01 μM (% Inh): 0.01 μM compound
T1 construct: purchased Reaction Biology Corporation
Outline: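 10-dose HTRF assay; kinase preincubated with compound 10 min at RT, then reacted with 10 μM PIP2 and 10 μM ATP for 30 min at 30 °C in HEPES pH 7.0 buffer. PIP3 product displaces biotin-PIP3 from the Eu/APC complex; signal converted to PIP3 via standard curve, IC50 by nonlinear regression.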

[2] = target: T2, BTK (Homo sapiens, UniProt Q06187); assay: BTK kinase assay (HotSpot, 33P ATP); type: biochemical; conditions: for IC50: 10 dose IC50, 10 μM ATP; for BTK @ 0.1 μM (% Inh): 0.1 μM compound; for BTK @ 0.01 μM (% Inh): 0.01 μM compound
T2 construct: purchased Reaction Biology Corporation
Outline: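 In 20 mM Hepes (pH 7.5) with 10 mM MgCl2, 1 mM EGTA, 0.1 mM Na3VO4, 2 mM DTT, 0.02% Brij35, 0.02 mg/mL BSA and 1% DMSO, kinase and substrate were exposed to ten compound doses for 15–20 min.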

T1 sequence (O00329 whole entry): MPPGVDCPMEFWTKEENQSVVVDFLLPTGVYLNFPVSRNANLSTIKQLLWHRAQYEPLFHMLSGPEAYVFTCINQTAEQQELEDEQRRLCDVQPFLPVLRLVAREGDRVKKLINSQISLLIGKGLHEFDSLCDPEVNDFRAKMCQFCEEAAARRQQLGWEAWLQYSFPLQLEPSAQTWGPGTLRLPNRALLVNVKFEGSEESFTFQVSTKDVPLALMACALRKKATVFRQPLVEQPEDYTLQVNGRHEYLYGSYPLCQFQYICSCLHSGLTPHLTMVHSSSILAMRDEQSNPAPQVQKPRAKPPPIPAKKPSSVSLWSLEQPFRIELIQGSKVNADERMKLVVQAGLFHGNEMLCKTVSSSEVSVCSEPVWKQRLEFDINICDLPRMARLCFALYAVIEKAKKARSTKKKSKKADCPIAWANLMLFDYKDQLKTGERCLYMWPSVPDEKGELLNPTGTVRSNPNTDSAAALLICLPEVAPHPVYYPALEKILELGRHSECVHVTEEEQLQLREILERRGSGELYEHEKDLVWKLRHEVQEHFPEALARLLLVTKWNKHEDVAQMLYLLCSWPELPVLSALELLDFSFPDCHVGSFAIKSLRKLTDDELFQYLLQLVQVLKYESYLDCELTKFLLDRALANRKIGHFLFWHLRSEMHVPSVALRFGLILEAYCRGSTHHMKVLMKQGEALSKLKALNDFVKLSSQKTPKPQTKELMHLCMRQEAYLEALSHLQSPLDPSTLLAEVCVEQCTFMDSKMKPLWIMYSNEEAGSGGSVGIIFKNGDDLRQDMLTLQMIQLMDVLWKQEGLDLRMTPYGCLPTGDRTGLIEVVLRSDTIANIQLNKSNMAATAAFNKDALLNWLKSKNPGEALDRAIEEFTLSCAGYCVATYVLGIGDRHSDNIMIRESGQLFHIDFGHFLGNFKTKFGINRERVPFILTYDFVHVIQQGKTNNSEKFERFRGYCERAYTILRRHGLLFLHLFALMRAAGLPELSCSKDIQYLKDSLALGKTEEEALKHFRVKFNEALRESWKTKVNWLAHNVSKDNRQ
T1 sequence (P27986 whole entry partner): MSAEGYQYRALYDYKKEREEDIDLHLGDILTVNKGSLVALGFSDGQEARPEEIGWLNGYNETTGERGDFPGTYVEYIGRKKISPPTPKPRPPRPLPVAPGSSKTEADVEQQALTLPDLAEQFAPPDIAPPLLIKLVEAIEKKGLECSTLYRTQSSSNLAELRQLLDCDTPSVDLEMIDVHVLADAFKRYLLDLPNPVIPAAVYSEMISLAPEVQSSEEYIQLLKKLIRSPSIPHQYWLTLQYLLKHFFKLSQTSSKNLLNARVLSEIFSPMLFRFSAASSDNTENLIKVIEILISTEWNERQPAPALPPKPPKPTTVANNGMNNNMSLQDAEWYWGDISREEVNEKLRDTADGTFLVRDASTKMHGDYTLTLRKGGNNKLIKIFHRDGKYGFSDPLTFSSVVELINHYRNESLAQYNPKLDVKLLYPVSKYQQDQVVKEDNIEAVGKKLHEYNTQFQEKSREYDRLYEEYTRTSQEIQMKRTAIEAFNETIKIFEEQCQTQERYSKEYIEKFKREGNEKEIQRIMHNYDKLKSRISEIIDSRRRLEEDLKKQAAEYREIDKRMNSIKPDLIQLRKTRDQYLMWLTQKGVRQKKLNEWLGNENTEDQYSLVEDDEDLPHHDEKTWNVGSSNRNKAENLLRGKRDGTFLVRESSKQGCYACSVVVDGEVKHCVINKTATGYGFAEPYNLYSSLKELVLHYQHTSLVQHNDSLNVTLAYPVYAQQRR
T2 sequence (Q06187 whole entry): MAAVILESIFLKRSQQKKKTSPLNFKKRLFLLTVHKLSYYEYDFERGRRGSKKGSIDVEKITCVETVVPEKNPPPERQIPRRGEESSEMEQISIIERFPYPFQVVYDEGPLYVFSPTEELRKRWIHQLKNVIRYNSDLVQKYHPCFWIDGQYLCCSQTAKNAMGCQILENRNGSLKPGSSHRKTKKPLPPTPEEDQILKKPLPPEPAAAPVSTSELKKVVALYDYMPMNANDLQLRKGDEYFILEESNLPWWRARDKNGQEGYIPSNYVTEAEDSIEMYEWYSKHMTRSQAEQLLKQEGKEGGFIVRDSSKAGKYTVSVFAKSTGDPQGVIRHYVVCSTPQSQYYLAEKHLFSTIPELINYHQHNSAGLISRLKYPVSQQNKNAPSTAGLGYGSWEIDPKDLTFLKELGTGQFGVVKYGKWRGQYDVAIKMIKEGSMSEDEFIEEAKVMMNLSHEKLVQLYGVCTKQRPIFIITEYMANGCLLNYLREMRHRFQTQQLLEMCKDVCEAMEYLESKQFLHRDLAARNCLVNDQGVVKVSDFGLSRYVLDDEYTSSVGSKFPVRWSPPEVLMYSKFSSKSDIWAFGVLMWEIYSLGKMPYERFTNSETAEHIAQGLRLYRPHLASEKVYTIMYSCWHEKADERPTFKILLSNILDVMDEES

| SMILES | IC50 [1] | IC50 [2] | PI3Kδ @ 0.1 μM (% Inh) ([1]; 10 μM ATP) | BTK @ 0.1 μM (% Inh) ([2]; 10 μM ATP) | PI3Kδ @ 1 μM (% Inh) ([1]; 1 μM compound, 10 μM ATP) | BTK @ 1 μM (% Inh) ([2]; 1 μM compound, 10 μM ATP) | PI3Kδ @ 0.01 μM (% Inh) ([1]; 10 μM ATP) | BTK @ 0.01 μM (% Inh) ([2]; 10 μM ATP) |
| --- | --- | --- | --- | --- | --- | --- | --- | --- |
| COc1cc(F)cc(-c2nn(C3CCc4ccccc4C3)c3ncnc(N)c23)c1 (stereo not drawn) [compound 7, 3-(3-fluoro-5-methoxyphenyl)-1-(1,2,3,4-tetrahydronaphthalen-2-yl)-1H-pyrazolo[3,4-d]pyrimidin-4-amine] | 1340 nM | 891 nM | – | – | – | – | – | – |
| Nc1ncnc2c1c(-c1ccc(F)c(O)c1)nn2C1CCc2ccccc21 (stereo not drawn) [compound 10, 5-(4-amino-1-indan-1-yl-pyrazolo[3,4-d]pyrimidin-3-yl)-2-fluoro-phenol] | – | – | 22.39 % Inh | 58.79 % Inh | – | – | – | – |
| Nc1ncnc2c1c(-c1cc(O)cc(F)c1)nn2C1CCCc2ccccc21 (stereo not drawn) [compound 11, 3-(4-amino-1-tetralin-1-yl-pyrazolo[3,4-d]pyrimidin-3-yl)-5-fluoro-phenol] | – | – | 45.08 % Inh | 22.06 % Inh | – | – | – | – |
| Nc1ncnc2c1c(-c1ccc(F)c(O)c1)nn2C1CCCc2ccccc21 (stereo not drawn) [compound 12, 5-(4-amino-1-tetralin-1-yl-pyrazolo[3,4-d]pyrimidin-3-yl)-2-fluoro-phenol] | – | – | 6.22 % Inh | 31.62 % Inh | – | – | – | – |
| Nc1ncnc2c1c(-c1ccc(O)c(F)c1)nn2C1CCc2ccccc2C1 (stereo not drawn) [compound 22, 4-(4-amino-1-(1,2,3,4-tetrahydronaphthalen-2-yl)-1H-pyrazolo[3,4-d]pyrimidin-3-yl)-2-fluorophenol] | 39.6 nM | 293 nM | – | – | – | – | – | – |
| COc1ncc(-c2nn(C3CCc4ccccc4C3)c3ncnc(N)c23)cc1F (stereo not drawn) [compound 23, 3-(5-fluoro-6-methoxypyridin-3-yl)-1-(1,2,3,4-tetrahydronaphthalen-2-yl)-1H-pyrazolo[3,4-d]pyrimidin-4-amine] | – | – | 23.11 % Inh | 15.45 % Inh | – | – | – | – |
| Nc1ncnc2c1c(-c1ccc(O)nc1)nn2C1CCc2ccccc2C1 (stereo not drawn) [compound 24, 5-(4-amino-1-(1,2,3,4-tetrahydronaphthalen-2-yl)-1H-pyrazolo[3,4-d]pyrimidin-3-yl)pyridin-2-ol] | – | – | 10.3 % Inh | 5.45 % Inh | – | – | – | – |
| Nc1ncnc2c1c(-c1ccc(Cl)nc1)nn2C1CCc2ccccc2C1 (stereo not drawn) [compound 25, 3-(6-chloro-3-pyridyl)-1-tetralin-2-yl-pyrazolo[3,4-d]pyrimidin-4-amine] | – | – | 27.39 % Inh | 20.21 % Inh | – | – | – | – |
| NC(=O)c1cccc(-c2nn(C3CCc4ccccc4C3)c3ncnc(N)c23)c1 (stereo not drawn) [compound 27, 3-(4-amino-1-tetralin-2-yl-pyrazolo[3,4-d]pyrimidin-3-yl)benzamide] | – | – | 4.7 % Inh | 13.54 % Inh | – | – | – | – |
| NC(=O)c1ccc(-c2nn(C3CCc4ccccc4C3)c3ncnc(N)c23)cc1 (stereo not drawn) [compound 28, 4-(4-amino-1-tetralin-2-yl-pyrazolo[3,4-d]pyrimidin-3-yl)benzamide] | – | – | 15.27 % Inh | 14.0 % Inh | – | – | – | – |
| Nc1ncnc2c1c(-c1cc(O)cc(F)c1)nn2C1CCc2ccccc21 (stereo not drawn) [compound 30, 3-(4-amino-1-indan-1-yl-pyrazolo[3,4-d]pyrimidin-3-yl)-5-fluoro-phenol] | 13 nM | 217 nM | 64.19 % Inh | 35.16 % Inh | – | – | – | – |
| C=CC(=O)N1CC(n2nc(-c3cnc(OC)c(F)c3)c3c(N)ncnc32)Cc2cc(C)ccc21 (stereo not drawn) [compound 32, 1-(3-(4-amino-3-(5-fluoro-6-methoxypyridin-3-yl)-1H-pyrazolo[3,4-d]pyrimidin-1-yl)-6-methyl-3,4-dihydroquinolin-1 (2H)-yl)prop-2-en-1-one] | 1490 nM | 877 nM | 11.3 % Inh | 13.50 % Inh | – | – | – | – |
| COc1ccc(-c2nn(C3CCCc4ccccc43)c3ncnc(N)c23)cc1OC (stereo not drawn) [compound 33, 3-(3,4-dimethoxyphenyl)-1-(1,2,3,4-tetrahydronaphthalen-1-yl)-1H-pyrazolo[3,4-d]pyrimidin-4-amine] | – | – | 27.41 % Inh | 7.04 % Inh | – | – | – | – |
| COc1ccc(-c2nn(C3CCc4ccccc43)c3ncnc(N)c23)cc1OC (stereo not drawn) [compound 34, 1-(2,3-dihydro-1H-inden-1-yl)-3-(3,4-dimethoxyphenyl)-1H-pyrazolo[3,4-d]pyrimidin-4-amine] | – | – | 51.63 % Inh | 23.12 % Inh | – | – | – | – |
| Nc1ncnc2c1c(-c1ccc(Br)c(O)c1)nn2C1CCc2ccccc21 (stereo not drawn) [compound 36, 5-[4-amino-1-(2,3-dihydro-1H-inden-1-yl)-1H-pyrazolo[3,4-d]pyrimidin-3-yl]-2-bromophenol] | – | – | 56.42 % Inh | 43.28 % Inh | – | – | – | – |
| Nc1ncnc2c1c(-c1ccc3cc[nH]c3c1)nn2C1CCc2ccccc21 (stereo not drawn) [compound 37, 1-(2,3-dihydro-1H-inden-1-yl)-3-(1H-indol-6-yl)-1H-pyrazolo[3,4-d]pyrimidin-4-amine] | – | – | 15.52 % Inh | 29.59 % Inh | – | – | – | – |
| Nc1ncnc2c1c(-c1ccc3cc[nH]c3c1)nn2C1CCCc2ccccc21 (stereo not drawn) [compound 38, 3-(1H-indol-6-yl)-1-(1,2,3,4-tetrahydronaphthalen-1-yl)-1H-pyrazolo[3,4-d]pyrimidin-4-amine] | – | – | 7.33 % Inh | 15.94 % Inh | – | – | – | – |
| Nc1ncnc2c1c(-c1cc(O)cc(F)c1)nn2C1CCCc2ccc(F)cc21 (stereo not drawn) [compound 41, 3-[4-amino-1-(7-fluoro-1,2,3,4-tetrahydronaphthalen-1-yl)-1H-pyrazolo[3,4-d]pyrimidin-3-yl]-5-fluorophenol] | – | – | 80.15 % Inh | 4.89 % Inh | – | – | – | – |
| Nc1ncnc2c1c(-c1cc(O)cc(F)c1)nn2C1Cc2cc(F)ccc2C1=O (stereo not drawn) [compound 51, 2-[4-amino-3-(3-fluoro-5-hydroxyphenyl)-1H-pyrazolo[3,4-d]pyrimidin-1-yl]-5-fluoro-2,3-dihydro-1H-inden-1-one] | 65.7 nM | 422 nM | 73.20 % Inh | 41.05 % Inh | 98.33 % Inh | 82.76 % Inh | – | – |
| Nc1ncnc2c1c(-c1cc(O)c(F)c(F)c1)nn2C1Cc2cc(F)ccc2C1=O (stereo not drawn) [compound 127, 2-[4-amino-3-(3,4-difluoro-5-hydroxyphenyl)-1H-pyrazolo[3,4-d]pyrimidin-1-yl]-5-fluoro-2,3-dihydro-1H-inden-1-one] | – | – | 51.48 % Inh | 21.87 % Inh | – | – | 16.23 % Inh | 9.24 % Inh |
| Nc1ncnc2c1c(-c1cc(O)c(F)c(F)c1)c(Cl)n2C1Cc2ccccc2C1 [compound 134, 5-[4-amino-6-chloro-7-(2,3-dihydro-1H-inden-2-yl)-7H-pyrrolo[2,3-d]pyrimidin-5-yl]-2,3-difluorophenol] | – | – | 56.02 % Inh | 74.7 % Inh | – | – | −6.1 % Inh | 17.28 % Inh |
| N#Cc1c(-c2cc(O)c(F)c(F)c2)c2c(N)ncnc2n1C1Cc2ccccc2C1 [compound 135, 4-amino-5-(3,4-difluoro-5-hydroxyphenyl)-7-(2,3-dihydro-1H-inden-2-yl)-7H-pyrrolo[2,3-d]pyrimidine-6-carbonitrile] | – | – | 84.33 % Inh | 88.59 % Inh | – | – | 51.74 % Inh | 51.3 % Inh |
| Nc1ncnc2c1c(-c1cc(O)c(F)c(F)c1)c(F)n2C1Cc2ccccc2C1 [compound 136, 5-[4-amino-7-(2,3-dihydro-1H-inden-2-yl)-6-fluoro-7H-pyrrolo[2,3-d]pyrimidin-5-yl]-2,3-difluorophenol] | – | – | 80.15 % Inh | 93.64 % Inh | – | – | 38.49 % Inh | 72.51 % Inh |
| Nc1ncnc2c(C3Cc4ccccc4C3)cn(-c3cc(O)c(F)c(F)c3)c12 [compound 137, 5-[4-amino-7-(2,3-dihydro-1H-inden-2-yl)-5H-pyrrolo[3,2-d]pyrimidin-5-yl]-2,3-difluorophenol] | – | – | 45.54 % Inh | 96.31 % Inh | – | – | 6.28 % Inh | 87.65 % Inh |
| NCc1ccc(-c2nn(C3Cc4ccccc4C3)c3ncnc(N)c23)cc1 [compound 138, 3-[4-(aminomethyl)phenyl]-1-(2,3-dihydro-1H-inden-2-yl)-1H-pyrazolo[3,4-d]pyrimidin-4-amine] | – | – | 5.54 % Inh | −6.05 % Inh | – | – | −2.71 % Inh | −7.89 % Inh |
| Nc1ccc2c(c1)CC(n1nc(-c3cc(O)c(F)c(F)c3)c3c(N)ncnc31)C2 (stereo not drawn) [compound 139, 5-[4-amino-1-(5-amino-2,3-dihydro-1H-inden-2-yl)-1H-pyrazolo[3,4-d]pyrimidin-3-yl]-2,3-difluorophenol] | – | – | 90.95 % Inh | 95.07 % Inh | – | – | 65.26 % Inh | 80.96 % Inh |
| Nc1nccn2c(C3Cc4ccccc4C3)nc(-c3cc(O)c(F)c(F)c3)c12 [compound 140, 5-[8-amino-3-(2,3-dihydro-1H-inden-2-yl)imidazo[1,5-a]pyrazin-1-yl]-2,3-difluorophenol] | – | – | 79.18 % Inh | 96.04 % Inh | – | – | 31.54 % Inh | 83.98 % Inh |
